This note sets out measurements from US11814367B2, “Inhibitors of glycogen synthase 1 (GYS1) and methods of use thereof” (Maze Therapeutics, Inc., priority 2021, dated 2023).

The structures appear in SMILES notation. Bounds are passed on as bounds.

The target in experiment [1] is hGYS1 enzyme (recombinant hGYS1/GN1 protein) (Homo sapiens (Human), UniProt P13807). The experiment can be described thus: GYS1 coupled enzyme assay (PK/LDH). Type of experiment: biochemical. To be noted: hGYS1/GN1 50 nM, UDP-Glucose 0.8 mM, G6P 1 mM; geometric mean of at least 2 runs.
Chain of hGYS1 enzyme (recombinant hGYS1/GN1 protein) (P13807 whole entry): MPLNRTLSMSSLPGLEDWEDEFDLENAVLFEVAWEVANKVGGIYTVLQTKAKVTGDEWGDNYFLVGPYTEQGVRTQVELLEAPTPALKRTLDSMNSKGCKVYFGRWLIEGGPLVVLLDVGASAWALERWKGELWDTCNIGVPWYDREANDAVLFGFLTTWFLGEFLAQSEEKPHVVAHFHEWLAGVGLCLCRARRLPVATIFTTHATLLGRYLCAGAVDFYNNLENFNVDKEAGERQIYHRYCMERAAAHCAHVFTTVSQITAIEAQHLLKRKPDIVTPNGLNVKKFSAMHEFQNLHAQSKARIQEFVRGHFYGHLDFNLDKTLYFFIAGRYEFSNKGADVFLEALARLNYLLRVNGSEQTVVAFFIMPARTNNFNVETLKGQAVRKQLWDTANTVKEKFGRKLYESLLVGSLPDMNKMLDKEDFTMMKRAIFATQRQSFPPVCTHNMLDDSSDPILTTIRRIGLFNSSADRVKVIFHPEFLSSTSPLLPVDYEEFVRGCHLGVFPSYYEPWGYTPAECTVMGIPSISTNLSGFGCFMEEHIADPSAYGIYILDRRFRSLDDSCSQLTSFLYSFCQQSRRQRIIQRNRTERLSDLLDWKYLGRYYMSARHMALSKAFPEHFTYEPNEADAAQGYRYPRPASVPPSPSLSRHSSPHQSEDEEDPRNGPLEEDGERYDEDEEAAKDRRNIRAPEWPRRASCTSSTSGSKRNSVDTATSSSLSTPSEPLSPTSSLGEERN
Chain of hGYS1 enzyme (recombinant hGYS1/GN1 protein) (P46976 whole entry partner): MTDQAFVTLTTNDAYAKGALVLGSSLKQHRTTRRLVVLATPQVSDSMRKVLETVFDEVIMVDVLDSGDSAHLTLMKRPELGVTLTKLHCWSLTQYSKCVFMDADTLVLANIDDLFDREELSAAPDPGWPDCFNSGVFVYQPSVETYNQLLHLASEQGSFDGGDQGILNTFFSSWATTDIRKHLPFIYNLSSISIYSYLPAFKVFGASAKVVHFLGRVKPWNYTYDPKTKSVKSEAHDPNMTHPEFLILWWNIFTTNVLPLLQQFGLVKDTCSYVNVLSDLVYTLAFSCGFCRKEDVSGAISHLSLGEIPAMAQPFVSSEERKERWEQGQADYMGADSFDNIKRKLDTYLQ
Experiment [2] relates to hGYS1 enzyme / glycogen synthesis in HeLa cells. The experiment can be described thus: GYS1 cell based assay (glycogen synthesis, Glucose-glo). The arrangement: species or system human. The following applies: Homo sapiens, 24 h incubation, 20 mM glucose, geometric mean of at least 2 runs. Put shortly:
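HeLa cells starved 24 h in medium containing only 1× Glutamax were plated onto compound in medium with 20 mM glucose (1% DMSO final) for 24 h, 37 °C, 5% CO2. Acid lysates were Tris-quenched, glucoamylase-digested (pH 5.3, 1 h, 37 °C) and read by Glucose-glo luminescence. IC50 came from Hill fits, as geometric mean of ≥2 runs.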

The target of experiment [3] is hGYS2 enzyme (recombinant hGYS2/GN1 protein) (Homo sapiens (Human), UniProt P54840). Nature of the experiment: GYS2 coupled enzyme assay (PK/LDH). The following applies: geometric mean of at least 2 assay runs on separate days, read-out: Avg_IC50. Type of experiment: biochemical. Summed up: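 IC50 came from Hill fits of duplicate percent inhibition, based on control-normalized slopes of 340 nm NADH decline read each minute for 10 min. The reaction held recombinant hGYS2/GN1 (200 nM) with glycogen, UDP-glucose, G6P and PEP, plus PK/LDH coupling at pH 7.5 and 2.5% DMSO.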
Chain of hGYS2 enzyme (recombinant hGYS2/GN1 protein) (P54840 whole entry): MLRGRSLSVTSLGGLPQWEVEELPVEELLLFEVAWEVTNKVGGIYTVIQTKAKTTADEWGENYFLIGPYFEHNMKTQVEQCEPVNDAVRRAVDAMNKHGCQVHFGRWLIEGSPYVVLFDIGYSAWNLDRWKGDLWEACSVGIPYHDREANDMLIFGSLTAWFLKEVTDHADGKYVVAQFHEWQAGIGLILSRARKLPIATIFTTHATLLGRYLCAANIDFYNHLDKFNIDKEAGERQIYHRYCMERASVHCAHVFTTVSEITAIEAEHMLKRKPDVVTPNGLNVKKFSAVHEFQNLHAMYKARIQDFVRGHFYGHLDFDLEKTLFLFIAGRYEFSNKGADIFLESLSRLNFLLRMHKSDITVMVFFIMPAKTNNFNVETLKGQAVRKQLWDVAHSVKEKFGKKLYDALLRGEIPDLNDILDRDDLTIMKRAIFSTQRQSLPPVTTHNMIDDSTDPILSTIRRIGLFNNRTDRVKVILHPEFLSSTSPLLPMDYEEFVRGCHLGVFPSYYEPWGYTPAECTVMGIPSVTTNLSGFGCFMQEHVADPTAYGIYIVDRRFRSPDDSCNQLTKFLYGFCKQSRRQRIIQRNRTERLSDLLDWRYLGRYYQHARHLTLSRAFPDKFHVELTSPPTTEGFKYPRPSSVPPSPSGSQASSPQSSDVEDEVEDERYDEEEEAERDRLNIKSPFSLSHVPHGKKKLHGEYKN
Chain of hGYS2 enzyme (recombinant hGYS2/GN1 protein) (P46976 whole entry partner): as the sequence (P46976 whole entry partner) above

Take `CC(C)c1ccc([C@@H](NC(=O)[C@@H]2C[C@@H](F)CN2C(=O)Cn2cc(N(C)C)nn2)c2ccccc2)nc1` [Compound 260, (2S,4R)-1-{2-[4-(dimethylamino)-1H-1,2,3-triazol-1-yl]acetyl}-4-fluoro-N-[(S)-phenyl[5-(propan-2-yl)pyridin-2-yl]methyl]pyrrolidine-2-carboxamide]: the IC50 was 35 nM in experiment [1]; 530 nM in experiment [2] (HeLa, 24 h); greater than 100000 nM in experiment [3].

On to `CC(=O)N1CCC2(CCC(C(=O)N3C[C@H](F)C[C@H]3C(=O)N[C@@H](c3ccccc3)c3ccc(C(C)C)cc3)C2)CC1` (stereo partly drawn) [Compound 184, (2S,4R)-1-{8-acetyl-8-azaspiro[4.5]decane-2-carbonyl}-4-fluoro-N-[(S)-phenyl[4-(propan-2-yl)phenyl]methyl]pyrrolidine-2-carboxamide], for which the IC50 in experiment [1] was 75 nM; in experiment [2] (HeLa, 24 h), 3030 nM; in experiment [3], greater than 100000 nM.

Take `C[C@@H](NC(=O)N(C)C)C(=O)N1C[C@H](F)C[C@H]1C(=O)N[C@@H](c1ccccc1)c1ccc(C2CC2)c(F)n1` [Compound 311, (2S,4R)-N-[(S)-(5-cyclopropyl-6-fluoropyridin-2-yl)(phenyl)methyl]-1-[(2R)-2-[(dimethylcarbamoyl)amino]propanoyl]-4-fluoropyrrolidine-2-carboxamide]: the IC50 in experiment [1] is 127 nM; in experiment [2] (HeLa, 24 h), 2100 nM; in experiment [3], greater than 100000 nM.

Regarding `Cc1nc(C(NC(=O)[C@@H]2C[C@@H](F)CN2C(=O)Cc2cnn[nH]2)c2ccccc2)ccc1C(C)C` (single isomer, unassigned) [Compound 607, (2S,4R)-4-fluoro-N-[(S) or (R)-[6-methyl-5-(propan-2-yl)pyridin-2-yl](phenyl)methyl]-1-[2-(1H-1,2,3-triazol-5-yl)acetyl]pyrrolidine-2-carboxamide], the IC50 in experiment [1] was 333 nM; in experiment [2] (HeLa, 24 h) it was 3290 nM; in experiment [3], greater than 100000 nM.

In the case of `CC(C)c1ccc([C@@H](NC(=O)[C@@H]2C[C@@H](F)CN2C(=O)Cc2n[nH]c(=O)n2C)c2ccccc2)nc1` [Compound 264, (2S,4R)-4-fluoro-1-[2-(4-methyl-5-oxo-4,5-dihydro-1H-1,2,4-triazol-3-yl)acetyl]-N-[(S)-phenyl[5-(propan-2-yl)pyridin-2-yl]methyl]pyrrolidine-2-carboxamide], the IC50 is 130 nM in experiment [1]; 4290 nM in experiment [2] (HeLa, 24 h); greater than 100000 nM in experiment [3].

In the case of `Cc1ccc2[nH]cc(CC(=O)N3C[C@H](F)C[C@H]3C(=O)N[C@@H](c3ccccc3)c3ccc(C(C)C)cc3)c2c1` [Compound 138, (2S,4R)-4-fluoro-1-[2-(5-methyl-1H-indol-3-yl)acetyl]-N-[(S)-phenyl[4-(propan-2-yl)phenyl]methyl]pyrrolidine-2-carboxamide], the IC50 in experiment [1] was 12 nM; in experiment [2] (HeLa, 24 h) it was 270 nM; in experiment [3], greater than 100000 nM.

Take `Cc1coc(CC(=O)N2C[C@H](F)C[C@H]2C(=O)N[C@@H](c2ccccc2)c2ccc(C(C)C)cn2)n1` [Compound 272]: the IC50 in experiment [1] is 54 nM; in experiment [2] (HeLa, 24 h), 710 nM; in experiment [3] it was greater than 100000 nM.

On to `CC(C)(C)c1ccc(C(NC(=O)[C@@H]2C[C@@H](F)CN2C(=O)Cc2cnn[nH]2)c2ccccc2)nc1` (single isomer, unassigned) [Compound 611, (2S,4R)-N-[(S) or (R)-(5-tert-butylpyridin-2-yl)(phenyl)methyl]-4-fluoro-1-[2-(1H-1,2,3-triazol-5-yl)acetyl]pyrrolidine-2-carboxamide], for which the IC50 was 547 nM in experiment [1]; 5320 nM in experiment [2] (HeLa, 24 h); greater than 100000 nM in experiment [3].

For `CCn1cc(CC(=O)N2C[C@H](F)C[C@H]2C(=O)N[C@@H](c2ccccc2)c2ccc(C3CC(F)(F)C3)c(F)n2)ccc1=O` [Compound 519, (2S,4R)-N-[(S)-[5-(3,3-difluorocyclobutyl)-6-fluoropyridin-2-yl](phenyl)methyl]-1-[2-(1-ethyl-6-oxo-1,6-dihydropyridin-3-yl)acetyl]-4-fluoropyrrolidine-2-carboxamide], the IC50 is 8 nM in experiment [1]; 220 nM in experiment [2] (HeLa, 24 h); greater than 100000 nM in experiment [3].

Consider `CN(C)C(=O)NCC(=O)N1C[C@H](F)C[C@H]1C(=O)N[C@@H](c1ccccc1)c1ccc(C2CC(F)(F)C2)c(F)n1` [Compound 507, (2S,4R)-N-[(S)-[5-(3,3-difluorocyclobutyl)-6-fluoropyridin-2-yl](phenyl)methyl]-1-{2-[(dimethylcarbamoyl)amino]acetyl}-4-fluoropyrrolidine-2-carboxamide], for which the IC50 in experiment [1] was 22 nM; in experiment [2] (HeLa, 24 h), 260 nM; in experiment [3] it was greater than 100000 nM.

For `CC1(c2ccc([C@@H](NC(=O)[C@@H]3C[C@@H](F)CN3C(=O)COC(=O)N3CCN(CC4CC4)CC3)c3ccccc3)cc2F)CC1` [Compound 584, 2-[(2S,4R)-4-fluoro-2-{[(S)-[3-fluoro-4-(1-methylcyclopropyl)phenyl](phenyl)methyl]carbamoyl}pyrrolidin-1-yl]-2-oxoethyl 4-(cyclopropylmethyl) piperazine-1-carboxylate], the IC50 in experiment [1] was 104 nM; in experiment [2] (HeLa, 24 h), 4070 nM; in experiment [3], greater than 91800 nM.

Take `CC(C)c1ccc([C@@H](NC(=O)[C@@H]2C[C@@H](F)CN2C(=O)CNC(=O)N2CCN(C)CC2)c2ccccc2)nc1` [Compound 283, N-{2-[(2S,4R)-4-fluoro-2-{[(S)-phenyl[5-(propan-2-yl)pyridin-2-yl]methyl]carbamoyl}pyrrolidin-1-yl]-2-oxoethyl}-4-methylpiperazine-1-carboxamide]: the IC50 is 58 nM in experiment [1]; 2400 nM in experiment [2] (HeLa, 24 h); greater than 100000 nM in experiment [3].

Turning to `Cn1nc(CC(=O)N2C[C@H](F)C[C@H]2C(=O)N[C@@H](c2ccccc2)c2ccc(C3CC3)c(F)n2)[nH]c1=O` [Compound 303, (2S,4R)-N-[(S)-(5-cyclopropyl-6-fluoropyridin-2-yl)(phenyl)methyl]-4-fluoro-1-[2-(1-methyl-5-oxo-4,5-dihydro-1H-1,2,4-triazol-3-yl)acetyl]pyrrolidine-2-carboxamide], the IC50 in experiment [1] is 36 nM; in experiment [2] (HeLa, 24 h), 1520 nM; in experiment [3], greater than 100000 nM.

As for `Cn1cc(CC(=O)N2C[C@H](F)C[C@H]2C(=O)N[C@@H](c2ccccc2)c2ccc(C3(C)CC3)c(F)c2)c2ccccc21` [Compound 563, (2S,4R)-4-fluoro-N-[(S)-[3-fluoro-4-(1-methylcyclopropyl)phenyl](phenyl)methyl]-1-[2-(1-methyl-1H-indol-3-yl)acetyl]pyrrolidine-2-carboxamide], the IC50 was 63 nM in experiment [1]; 780 nM in experiment [2] (HeLa, 24 h); greater than 100000 nM in experiment [3].

In the case of `CC(C)c1c(F)cc([C@@H](NC(=O)[C@@H]2C[C@@H](F)CN2S(=O)(=O)Cc2cnn[nH]2)c2ccccc2)cc1F` [Compound 659, (2S,4R)-1-(((1H-1,2,3-triazol-5-yl)methyl)sulfonyl)-N—((S)-(3,5-difluoro-4-isopropylphenyl)(phenyl)methyl)-4-fluoropyrrolidine-2-carboxamide], the IC50 in experiment [1] came to 331 nM; in experiment [2] it was 4350 nM; in experiment [3], 17500 nM.

In the case of `O=C(NC(c1ccccc1)c1ccc(C2CCC2)c(F)c1)[C@@H]1C[C@@H](F)CN1C(=O)Cc1cnn[nH]1` (single isomer, unassigned) [Compound 674, (2S,4R)-N-[(S) or (R)-(4-cyclobutyl-3-fluorophenyl) (phenyl)methyl]-4-fluoro-1-[2-(1H-1,2,3-triazol-5-yl)acetyl]pyrrolidine-2-carboxamide], the IC50 in experiment [1] is 96 nM; in experiment [2] (HeLa, 24 h) it was 710 nM; in experiment [3] it was greater than 100000 nM.

For `CN1CCN(C(=O)OCC(=O)N2C[C@H](F)C[C@H]2C(=O)N[C@@H](c2ccccc2)c2ccc(C3CC3)c(F)c2)CC1` [Compound 445, 2-[(2S,4R)-2-{[(S)-(4-cyclopropyl-3-fluorophenyl)(phenyl)methyl]carbamoyl}-4-fluoropyrrolidin-1-yl]-2-oxoethyl 4-methylpiperazine-1-carboxylate], the IC50 was 75 nM in experiment [1]; 1660 nM in experiment [2] (HeLa, 24 h); greater than 100000 nM in experiment [3].

As to `CC(C)c1ccc([C@@H](NC(=O)[C@@H]2C[C@@H](F)CN2C(=O)Cc2cnc3ccccn23)c2ccccc2)cc1F` [Compound 356, (2S,4R)-4-fluoro-N-[(S)-[3-fluoro-4-(propan-2-yl)phenyl](phenyl)methyl]-1-(2-{imidazo[1,2-a]pyridin-3-yl}acetyl)pyrrolidine-2-carboxamide], the IC50 in experiment [1] is 13 nM; in experiment [2] (HeLa, 24 h) it was 190 nM; in experiment [3], greater than 100000 nM.

Regarding `O=C(N[C@@H](c1ccccc1)c1ccc(C2CC2)c(F)c1)[C@@H]1C[C@@H](F)CN1C(=O)Cc1noc(=O)[nH]1` [Compound 492, (2S,4R)-N-[(S)-(4-cyclopropyl-3-fluorophenyl)(phenyl)methyl]-4-fluoro-1-[2-(5-oxo-4,5-dihydro-1,2,4-oxadiazol-3-yl)acetyl]pyrrolidine-2-carboxamide], the IC50 in experiment [1] was 138 nM; in experiment [2] (HeLa, 24 h), greater than 30000 nM; in experiment [3], greater than 100000 nM.
